According to ChEMBL document CHEMBL1201862, “PubChem BioAssay data set” (2004):
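The compound was tested at five concentrations on cells cultured in 96-well plates, with a 48-hour exposure period. GI50 = concentration required for 50% inhibition of growth.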 Calls of active or inactive are those of the source. No stated cut-off is given here; in the data, active = GI50 up to about 1.1 µM and inactive = higher.

Key:
Experiment in all cases: NCI-60 cell line screen, 48 h
786-0 = system: 786-0
A498 = system: A498
A549 = system: A549
ACHN = system: ACHN
BT-549 = system: BT-549
CAKI-1 = system: CAKI-1
CCRF-CEM = system: CCRF-CEM
COLO 205 = system: COLO 205
DU-145 = system: DU-145
EKVX = system: EKVX
HCT-116 = system: HCT-116
HCT-15 = system: HCT-15
HL-60 = system: HL-60
HOP-62 = system: HOP-62
HOP-92 = system: HOP-92
HT-29 = system: HT-29
Hs-578T = system: Hs-578T
IGROV-1 = system: IGROV-1
K562 = system: K562
KM12 = system: KM12
LOX IMVI = system: LOX IMVI
M14 = system: M14
MCF7 = system: MCF7
MDA-MB-231 = system: MDA-MB-231
MDA-MB-435 = system: MDA-MB-435
MDA-N = system: MDA-N
MOLT-4 = system: MOLT-4
Malme-3M = system: Malme-3M
NCI-H226 = system: NCI-H226
NCI-H23 = system: NCI-H23
NCI-H460 = system: NCI-H460
NCI-H522 = system: NCI-H522
NCI/ADR-RES = system: NCI/ADR-RES
OVCAR-3 = system: OVCAR-3
OVCAR-4 = system: OVCAR-4
OVCAR-5 = system: OVCAR-5
OVCAR-8 = system: OVCAR-8
PC-3 = system: PC-3
RPMI-8226 = system: RPMI-8226
RXF 393 = system: RXF 393
SF-268 = system: SF-268
SF-295 = system: SF-295
SF-539 = system: SF-539
SK-MEL-28 = system: SK-MEL-28
SK-MEL-2 = system: SK-MEL-2
SK-MEL-5 = system: SK-MEL-5
SK-OV-3 = system: SK-OV-3
SN12C = system: SN12C
SNB-19 = system: SNB-19
SNB-75 = system: SNB-75
SR = system: SR
SW-620 = system: SW-620
T47D = system: T47D
TK-10 = system: TK-10
U-251 = system: U-251
UACC-257 = system: UACC-257
UACC-62 = system: UACC-62
UO-31 = system: UO-31

## O=C(O)c1cccc(/N=N/c2c(S(=O)(=O)O)ccc3c2C(=O)c2ccccc2C3=O)c1O
786-0
  GI50: > 100 µM (inactive)
A498
  GI50: > 100 µM (inactive)
A549
  GI50: > 100 µM (inactive)
ACHN
  GI50: > 100 µM (inactive)
BT-549
  GI50: > 100 µM (inactive)
CAKI-1
  GI50: > 100 µM (inactive)
CCRF-CEM
  GI50: > 100 µM (inactive)
COLO 205
  GI50: > 100 µM (inactive)
DU-145
  GI50: > 100 µM (inactive)
EKVX
  GI50: > 100 µM (inactive)
HCT-116
  GI50: > 100 µM (inactive)
HCT-15
  GI50: > 100 µM
HL-60
  GI50: > 100 µM (inactive)
HOP-62
  GI50: > 100 µM (inactive)
HOP-92
  GI50: > 100 µM (inactive)
HT-29
  GI50: > 100 µM (inactive)
Hs-578T
  GI50: > 100 µM (inactive)
IGROV-1
  GI50: > 100 µM (inactive)
K562
  GI50: > 100 µM (inactive)
KM12
  GI50: > 100 µM (inactive)
LOX IMVI
  GI50: > 100 µM (inactive)
M14
  GI50: > 100 µM (inactive)
MCF7
  GI50: > 100 µM (inactive)
MDA-MB-231
  GI50: > 100 µM (inactive)
MDA-MB-435
  GI50: > 100 µM (inactive)
MDA-N
  GI50: > 100 µM (inactive)
MOLT-4
  GI50: > 100 µM (inactive)
Malme-3M
  GI50: 54.6 µM (inactive)
NCI-H226
  GI50: > 100 µM (inactive)
NCI-H23
  GI50: > 100 µM (inactive)
NCI-H460
  GI50: > 100 µM (inactive)
NCI-H522
  GI50: > 100 µM (inactive)
NCI/ADR-RES
  GI50: > 100 µM (inactive)
OVCAR-3
  GI50: > 100 µM (inactive)
OVCAR-4
  GI50: > 100 µM (inactive)
OVCAR-5
  GI50: > 100 µM (inactive)
OVCAR-8
  GI50: > 100 µM (inactive)
PC-3
  GI50: > 100 µM (inactive)
RPMI-8226
  GI50: > 100 µM (inactive)
RXF 393
  GI50: > 100 µM (inactive)
SF-268
  GI50: > 100 µM (inactive)
SF-295
  GI50: > 100 µM (inactive)
SF-539
  GI50: > 100 µM (inactive)
SK-MEL-28
  GI50: > 100 µM (inactive)
SK-MEL-2
  GI50: > 100 µM (inactive)
SK-MEL-5
  GI50: > 100 µM (inactive)
SK-OV-3
  GI50: > 100 µM (inactive)
SN12C
  GI50: > 100 µM (inactive)
SNB-19
  GI50: > 100 µM (inactive)
SNB-75
  GI50: > 100 µM (inactive)
SR
  GI50: > 100 µM (inactive)
SW-620
  GI50: > 100 µM (inactive)
T47D
  GI50: > 100 µM (inactive)
TK-10
  GI50: > 100 µM (inactive)
U-251
  GI50: > 100 µM (inactive)
UACC-257
  GI50: > 100 µM (inactive)
UACC-62
  GI50: > 100 µM (inactive)
UO-31
  GI50: > 100 µM (inactive)

## COC(=O)c1cc(C)n2c1CS[C@@H]2c1ccccc1
786-0
  GI50: 50.6 µM (inactive)
A498
  GI50: 27.4 µM (inactive)
A549
  GI50: 34.7 µM (inactive)
ACHN
  GI50: 58.7 µM (inactive)
BT-549
  GI50: 29.2 µM (inactive)
CAKI-1
  GI50: 38.7 µM (inactive)
CCRF-CEM
  GI50: 41.4 µM (inactive)
COLO 205
  GI50: 26.9 µM (inactive)
DU-145
  GI50: 82 µM (inactive)
EKVX
  GI50: 32.2 µM (inactive)
HCT-116
  GI50: 33.7 µM (inactive)
HCT-15
  GI50: 27.5 µM
HL-60
  GI50: 26.2 µM (inactive)
HOP-62
  GI50: 37.8 µM (inactive)
HOP-92
  GI50: 22.4 µM (inactive)
HT-29
  GI50: 31.2 µM (inactive)
Hs-578T
  GI50: 45.1 µM (inactive)
IGROV-1
  GI50: 44.4 µM (inactive)
K562
  GI50: 14.1 µM (inactive)
KM12
  GI50: 35.1 µM (inactive)
LOX IMVI
  GI50: 40.1 µM (inactive)
M14
  GI50: 24.9 µM (inactive)
MCF7
  GI50: 34 µM (inactive)
MDA-MB-231
  GI50: 57.4 µM (inactive)
MDA-MB-435
  GI50: 19.1 µM (inactive)
MDA-N
  GI50: 21.1 µM (inactive)
MOLT-4
  GI50: 22.5 µM (inactive)
Malme-3M
  GI50: 27.6 µM (inactive)
NCI-H226
  GI50: 28.8 µM (inactive)
NCI-H23
  GI50: 34.5 µM (inactive)
NCI-H522
  GI50: 23.2 µM (inactive)
NCI/ADR-RES
  GI50: 25.1 µM (inactive)
OVCAR-3
  GI50: 32.4 µM (inactive)
OVCAR-4
  GI50: 36.8 µM (inactive)
OVCAR-5
  GI50: > 100 µM (inactive)
OVCAR-8
  GI50: 44.4 µM (inactive)
PC-3
  GI50: 40.5 µM (inactive)
RPMI-8226
  GI50: 28.2 µM (inactive)
RXF 393
  GI50: 18.6 µM (inactive)
SF-268
  GI50: 50.6 µM (inactive)
SF-295
  GI50: 30.7 µM (inactive)
SK-MEL-28
  GI50: > 100 µM (inactive)
SK-MEL-2
  GI50: 28.4 µM (inactive)
SK-MEL-5
  GI50: 19.8 µM (inactive)
SK-OV-3
  GI50: 46 µM (inactive)
SN12C
  GI50: 37.2 µM (inactive)
SNB-19
  GI50: 66.1 µM (inactive)
SNB-75
  GI50: 16.5 µM (inactive)
SR
  GI50: 17.3 µM (inactive)
SW-620
  GI50: 44.6 µM (inactive)
T47D
  GI50: 21.5 µM (inactive)
TK-10
  GI50: 66.4 µM (inactive)
U-251
  GI50: 32 µM (inactive)
UACC-257
  GI50: 47.9 µM (inactive)
UO-31
  GI50: 28.4 µM (inactive)

## O=C1CCSc2c(cnc3ccccc23)N1
786-0
  GI50: > 100 µM (inactive)
A498
  GI50: 32.1 µM (inactive)
A549
  GI50: > 100 µM (inactive)
ACHN
  GI50: > 100 µM (inactive)
BT-549
  GI50: 27.4 µM (inactive)
CAKI-1
  GI50: 56.8 µM (inactive)
CCRF-CEM
  GI50: > 100 µM (inactive)
COLO 205
  GI50: > 100 µM (inactive)
DU-145
  GI50: > 100 µM (inactive)
EKVX
  GI50: 32.1 µM (inactive)
HCT-116
  GI50: > 100 µM (inactive)
HCT-15
  GI50: > 100 µM
HL-60
  GI50: > 100 µM (inactive)
HOP-62
  GI50: > 100 µM (inactive)
HOP-92
  GI50: > 100 µM (inactive)
HT-29
  GI50: > 100 µM (inactive)
Hs-578T
  GI50: 31.3 µM (inactive)
IGROV-1
  GI50: > 100 µM (inactive)
K562
  GI50: > 100 µM (inactive)
KM12
  GI50: > 100 µM (inactive)
LOX IMVI
  GI50: 58.2 µM (inactive)
M14
  GI50: > 100 µM (inactive)
MCF7
  GI50: 97.1 µM (inactive)
MDA-MB-231
  GI50: > 100 µM (inactive)
MDA-MB-435
  GI50: > 100 µM (inactive)
MDA-N
  GI50: > 100 µM (inactive)
MOLT-4
  GI50: > 100 µM (inactive)
Malme-3M
  GI50: > 100 µM (inactive)
NCI-H226
  GI50: 34.8 µM (inactive)
NCI-H23
  GI50: > 100 µM (inactive)
NCI-H460
  GI50: 89.7 µM (inactive)
NCI-H522
  GI50: > 100 µM (inactive)
NCI/ADR-RES
  GI50: > 100 µM (inactive)
OVCAR-3
  GI50: 65.5 µM (inactive)
OVCAR-4
  GI50: 67.3 µM (inactive)
OVCAR-5
  GI50: > 100 µM (inactive)
OVCAR-8
  GI50: > 100 µM (inactive)
PC-3
  GI50: 49.7 µM (inactive)
RPMI-8226
  GI50: > 100 µM (inactive)
RXF 393
  GI50: 34.4 µM (inactive)
SF-268
  GI50: > 100 µM (inactive)
SF-295
  GI50: > 100 µM (inactive)
SF-539
  GI50: 59.3 µM (inactive)
SK-MEL-28
  GI50: > 100 µM (inactive)
SK-MEL-2
  GI50: 80 µM (inactive)
SK-MEL-5
  GI50: > 100 µM (inactive)
SK-OV-3
  GI50: > 100 µM (inactive)
SN12C
  GI50: > 100 µM (inactive)
SNB-75
  GI50: 27.7 µM (inactive)
SR
  GI50: > 100 µM (inactive)
SW-620
  GI50: > 100 µM (inactive)
T47D
  GI50: > 100 µM (inactive)
TK-10
  GI50: 71.6 µM (inactive)
U-251
  GI50: > 100 µM (inactive)
UACC-257
  GI50: > 100 µM (inactive)
UACC-62
  GI50: > 100 µM (inactive)
UO-31
  GI50: 60.7 µM (inactive)
